Laboratory results as given in the supplement of paper PMC10307832.

Columns and labels:
Assay in all cases: relative viability (nuclei count vs DMSO), 5 days (fraction); higher = more cells survive
[1] = compound: Cc1ccc2nc(NCCN)c3ncc(C)n3c2c1 + CCNC(=O)c1noc(-c2cc(C(C)C)c(O)cc2O)c1-c1ccc(CN2CCOCC2)cc1 [Luminespib] (partner 0.01 µM)
In short: (§1)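 Medians of duplicate plates are given as relative viability. That measure is the nuclei count in treated wells divided by the count in vehicle wells. Counts were taken on 4× images of lung cancer cell lines in 1536-well plates, 5 days after pin-tool dosing the day after seeding with one drug alone or a fixed anchor-drug dose plus five library-drug doses (not always all listed) in √10 steps.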

Salubrinal + Palbociclib = compound: O=C(/C=C/c1ccccc1)NC(NC(=S)Nc1cccc2cccnc12)C(Cl)(Cl)Cl [Salubrinal] + CC(=O)c1c(C)c2cnc(Nc3ccc(N4CCNCC4)cn3)nc2n(C2CCCC2)c1=O [Palbociclib] (partner 0.5 µM)
In short: as §1

[2] = compound: Cc1ccc2nc(NCCN)c3ncc(C)n3c2c1 + NC(=O)Nc1cc(-c2cccc(F)c2)sc1C(=O)N[C@H]1CCCNC1 [AZD7762] (partner 0.2 µM)
In short: as §1

[3] = compound: Cc1ccc2nc(NCCN)c3ncc(C)n3c2c1 + CC(=O)c1c(C)c2cnc(Nc3ccc(N4CCNCC4)cn3)nc2n(C2CCCC2)c1=O [Palbociclib] (partner 0.5 µM)
In short: as §1

For NCI-H1437, the relative viability ([1]; first compound 0.04 µM) was 1.13, the relative viability ([1]; first compound 0.1265 µM) was 1.09 and the relative viability ([1]; first compound 0.4 µM) was 1.14. For the same cell line, the relative viability ([1]; first compound 1.265 µM) was 1.08, the relative viability ([1]; first compound 4 µM) was 1.06 and the relative viability (Salubrinal + Palbociclib; first compound 0.08 µM) was 0.321. The relative viability (Salubrinal + Palbociclib; first compound 0.253 µM) was 0.334, the relative viability (Salubrinal + Palbociclib; first compound 0.8 µM) was 0.327 and the relative viability (Salubrinal + Palbociclib; first compound 2.53 µM) was 0.315. For the same cell line, the relative viability (Salubrinal + Palbociclib; first compound 8 µM) was 0.322, the relative viability ([2]; first compound 0.04 µM) was 1.08 and the relative viability ([2]; first compound 0.1265 µM) was 1.12. It also gave a relative viability ([2]; first compound 0.4 µM) of 1.16, a relative viability ([2]; first compound 1.265 µM) of 0.901 and a relative viability ([2]; first compound 4 µM) of 1.04. For the same cell line, the relative viability ([3]; first compound 0.04 µM) was 0.3, the relative viability ([3]; first compound 0.1265 µM) was 0.315 and the relative viability ([3]; first compound 0.4 µM) was 0.296. The relative viability ([3]; first compound 1.265 µM) was 0.248 and the relative viability ([3]; first compound 4 µM) was 0.287.

Cell Line COR-L23 has a relative viability ([1]; first compound 0.04 µM) of 0.682, a relative viability ([1]; first compound 0.1265 µM) of 0.644 and a relative viability ([1]; first compound 0.4 µM) of 0.763. The relative viability ([1]; first compound 1.265 µM) was 0.47, the relative viability ([1]; first compound 4 µM) was 0.625 and the relative viability (Salubrinal + Palbociclib; first compound 0.08 µM) was 0.356. It also gave a relative viability (Salubrinal + Palbociclib; first compound 0.253 µM) of 0.31, a relative viability (Salubrinal + Palbociclib; first compound 0.8 µM) of 0.312 and a relative viability (Salubrinal + Palbociclib; first compound 2.53 µM) of 0.331. For the same cell line, the relative viability (Salubrinal + Palbociclib; first compound 8 µM) was 0.208, the relative viability ([3]; first compound 0.04 µM) was 0.383 and the relative viability ([3]; first compound 0.1265 µM) was 0.301. It also gave a relative viability ([3]; first compound 0.4 µM) of 0.323, a relative viability ([3]; first compound 1.265 µM) of 0.318 and a relative viability ([3]; first compound 4 µM) of 0.323.

For ABC-1, the relative viability ([1]; first compound 0.04 µM) was 0.507, the relative viability ([1]; first compound 0.1265 µM) was 0.719 and the relative viability ([1]; first compound 1.265 µM) was 0.52. The relative viability ([1]; first compound 4 µM) was 0.41, the relative viability (Salubrinal + Palbociclib; first compound 0.08 µM) was 0.692 and the relative viability (Salubrinal + Palbociclib; first compound 0.253 µM) was 0.576. It also gave a relative viability (Salubrinal + Palbociclib; first compound 0.8 µM) of 0.836, a relative viability (Salubrinal + Palbociclib; first compound 2.53 µM) of 0.547 and a relative viability (Salubrinal + Palbociclib; first compound 8 µM) of 0.664. For the same cell line, the relative viability ([2]; first compound 0.04 µM) was 0.765, the relative viability ([2]; first compound 0.1265 µM) was 0.999 and the relative viability ([2]; first compound 0.4 µM) was 0.798. For the same cell line, the relative viability ([2]; first compound 1.265 µM) was 0.741, the relative viability ([2]; first compound 4 µM) was 0.648 and the relative viability ([3]; first compound 0.04 µM) was 0.785. The relative viability ([3]; first compound 0.1265 µM) was 0.792, the relative viability ([3]; first compound 0.4 µM) was 0.887 and the relative viability ([3]; first compound 1.265 µM) was 0.649. It also gave a relative viability ([3]; first compound 4 µM) of 0.538.

SK-MES-1 showed a relative viability ([1]; first compound 0.04 µM) of 0.835, a relative viability ([1]; first compound 0.1265 µM) of 0.791 and a relative viability ([1]; first compound 0.4 µM) of 0.74. It also gave a relative viability ([1]; first compound 1.265 µM) of 0.772, a relative viability ([1]; first compound 4 µM) of 0.74 and a relative viability (Salubrinal + Palbociclib; first compound 0.08 µM) of 0.33. For the same cell line, the relative viability (Salubrinal + Palbociclib; first compound 0.253 µM) was 0.356, the relative viability (Salubrinal + Palbociclib; first compound 0.8 µM) was 0.33 and the relative viability (Salubrinal + Palbociclib; first compound 2.53 µM) was 0.305. For the same cell line, the relative viability (Salubrinal + Palbociclib; first compound 8 µM) was 0.259, the relative viability ([3]; first compound 0.04 µM) was 0.341 and the relative viability ([3]; first compound 0.1265 µM) was 0.298. For the same cell line, the relative viability ([3]; first compound 0.4 µM) was 0.351, the relative viability ([3]; first compound 1.265 µM) was 0.341 and the relative viability ([3]; first compound 4 µM) was 0.326.

In the case of NCI-H838, the relative viability ([1]; first compound 0.04 µM) is reported as 0.362, the relative viability ([1]; first compound 0.1265 µM) is reported as 0.344 and the relative viability ([1]; first compound 0.4 µM) is reported as 0.324. It also gave a relative viability ([1]; first compound 1.265 µM) of 0.3, a relative viability ([1]; first compound 4 µM) of 0.258 and a relative viability (Salubrinal + Palbociclib; first compound 0.08 µM) of 0.225. The relative viability (Salubrinal + Palbociclib; first compound 0.253 µM) was 0.244, the relative viability (Salubrinal + Palbociclib; first compound 0.8 µM) was 0.218 and the relative viability (Salubrinal + Palbociclib; first compound 2.53 µM) was 0.247. For the same cell line, the relative viability (Salubrinal + Palbociclib; first compound 8 µM) was 0.214, the relative viability ([2]; first compound 0.04 µM) was 1.05 and the relative viability ([2]; first compound 0.1265 µM) was 0.932. The relative viability ([2]; first compound 0.4 µM) was 0.914, the relative viability ([2]; first compound 1.265 µM) was 0.858 and the relative viability ([2]; first compound 4 µM) was 0.874. The relative viability ([3]; first compound 0.04 µM) was 0.216, the relative viability ([3]; first compound 0.1265 µM) was 0.233 and the relative viability ([3]; first compound 0.4 µM) was 0.233. It also gave a relative viability ([3]; first compound 1.265 µM) of 0.223 and a relative viability ([3]; first compound 4 µM) of 0.264.

SW 900 gave a relative viability ([1]; first compound 0.04 µM) of 0.168, a relative viability ([1]; first compound 0.1265 µM) of 0.161 and a relative viability ([1]; first compound 1.265 µM) of 0.149. The relative viability ([1]; first compound 4 µM) was 0.167, the relative viability (Salubrinal + Palbociclib; first compound 0.08 µM) was 0.692 and the relative viability (Salubrinal + Palbociclib; first compound 0.253 µM) was 0.531. The relative viability (Salubrinal + Palbociclib; first compound 0.8 µM) was 0.493, the relative viability (Salubrinal + Palbociclib; first compound 2.53 µM) was 0.468 and the relative viability (Salubrinal + Palbociclib; first compound 8 µM) was 0.567. It also gave a relative viability ([2]; first compound 0.1265 µM) of 0.56, a relative viability ([2]; first compound 0.4 µM) of 0.438 and a relative viability ([2]; first compound 1.265 µM) of 0.694. For the same cell line, the relative viability ([2]; first compound 4 µM) was 0.736, the relative viability ([3]; first compound 0.1265 µM) was 0.522 and the relative viability ([3]; first compound 0.4 µM) was 0.587. The relative viability ([3]; first compound 1.265 µM) was 0.464 and the relative viability ([3]; first compound 4 µM) was 0.589.

For A-427, the relative viability ([1]; first compound 0.04 µM) was 1.1, the relative viability ([1]; first compound 0.1265 µM) was 0.784 and the relative viability ([1]; first compound 0.4 µM) was 0.993. The relative viability ([1]; first compound 1.265 µM) was 1.02, the relative viability ([1]; first compound 4 µM) was 0.846 and the relative viability (Salubrinal + Palbociclib; first compound 0.08 µM) was 0.57. It also gave a relative viability (Salubrinal + Palbociclib; first compound 0.253 µM) of 0.527, a relative viability (Salubrinal + Palbociclib; first compound 0.8 µM) of 0.562 and a relative viability (Salubrinal + Palbociclib; first compound 2.53 µM) of 0.502. For the same cell line, the relative viability (Salubrinal + Palbociclib; first compound 8 µM) was 0.538, the relative viability ([2]; first compound 0.04 µM) was 0.816 and the relative viability ([2]; first compound 0.1265 µM) was 0.748. It also gave a relative viability ([2]; first compound 0.4 µM) of 0.748, a relative viability ([2]; first compound 1.265 µM) of 0.721 and a relative viability ([2]; first compound 4 µM) of 0.723. The relative viability ([3]; first compound 0.04 µM) was 0.531, the relative viability ([3]; first compound 0.1265 µM) was 0.485 and the relative viability ([3]; first compound 0.4 µM) was 0.496. For the same cell line, the relative viability ([3]; first compound 1.265 µM) was 0.506 and the relative viability ([3]; first compound 4 µM) was 0.555.

In the case of NCI-H1792, the relative viability ([1]; first compound 0.04 µM) is reported as 0.49, the relative viability ([1]; first compound 0.1265 µM) is reported as 0.434 and the relative viability ([1]; first compound 1.265 µM) is reported as 0.396. The relative viability ([1]; first compound 4 µM) was 0.432, the relative viability (Salubrinal + Palbociclib; first compound 0.08 µM) was 0.789 and the relative viability (Salubrinal + Palbociclib; first compound 0.8 µM) was 0.678. For the same cell line, the relative viability (Salubrinal + Palbociclib; first compound 2.53 µM) was 0.686, the relative viability (Salubrinal + Palbociclib; first compound 8 µM) was 0.66 and the relative viability ([2]; first compound 0.04 µM) was 0.822. The relative viability ([2]; first compound 0.1265 µM) was 0.665, the relative viability ([2]; first compound 1.265 µM) was 0.768 and the relative viability ([2]; first compound 4 µM) was 0.674. For the same cell line, the relative viability ([3]; first compound 0.04 µM) was 0.694, the relative viability ([3]; first compound 0.1265 µM) was 0.649 and the relative viability ([3]; first compound 0.4 µM) was 0.652. It also gave a relative viability ([3]; first compound 1.265 µM) of 0.562 and a relative viability ([3]; first compound 4 µM) of 0.625.

Work on LCLC-97TM1 yielded a relative viability ([1]; first compound 0.04 µM) of 0.761, a relative viability ([1]; first compound 0.1265 µM) of 0.713 and a relative viability ([1]; first compound 0.4 µM) of 0.752. For the same cell line, the relative viability ([1]; first compound 1.265 µM) was 0.699, the relative viability ([1]; first compound 4 µM) was 0.678 and the relative viability (Salubrinal + Palbociclib; first compound 0.08 µM) was 0.236. It also gave a relative viability (Salubrinal + Palbociclib; first compound 0.253 µM) of 0.224, a relative viability (Salubrinal + Palbociclib; first compound 0.8 µM) of 0.221 and a relative viability (Salubrinal + Palbociclib; first compound 2.53 µM) of 0.227. The relative viability (Salubrinal + Palbociclib; first compound 8 µM) was 0.265, the relative viability ([2]; first compound 0.04 µM) was 0.409 and the relative viability ([2]; first compound 0.1265 µM) was 0.321. It also gave a relative viability ([2]; first compound 0.4 µM) of 0.216, a relative viability ([2]; first compound 1.265 µM) of 0.269 and a relative viability ([2]; first compound 4 µM) of 0.225. The relative viability ([3]; first compound 0.04 µM) was 0.236, the relative viability ([3]; first compound 0.1265 µM) was 0.217 and the relative viability ([3]; first compound 0.4 µM) was 0.247. The relative viability ([3]; first compound 1.265 µM) was 0.218 and the relative viability ([3]; first compound 4 µM) was 0.245.
